Experimental data from US9504701B2, “Methods for treating viral infections using hydrogen sulfide donors” (THE BOARD OF REGENTS OF THE UNIVERSITY OF TEXAS SYSTEM, priority 2014, dated 2016).

Key:
RSV = RSV replication in A549 cells, viral titers by plaque assay; type: cell-based, RSV Long strain; conditions: PAG 20 or 40 mM, 24 h p.i.
[1] = test system: A549 cells infected with RSV; type: cell-based, human

## C#CCC(N)C(=O)O (racemic) [PAG, DL-propargylglycin]
Uninfected cells
  basal cellular mediator secretion: no effect
  uninfected-cell viability (trypan blue exclusion): no effect
RSV
  increase in viral infectious-particle formation (plaque assay): 3- to 4 fold
[1]
  levels of production of several cytokines and chemokines in response to RSV infection: significantly increased
